Assay results: paper PMC5464911, “SEL120-34A is a novel CDK8 inhibitor active in AML cells with high levels of serine phosphorylation of STAT1 and STAT5 transactivation domains” (Oncotarget, 2017)
pIC50: −log10 of the molar value. Like-named read-outs stand apart in the source and are kept apart here.

Assays:
Oci-AML5 = assay: Extended viability test (AlamarBlue); type: cell-based; conditions: Homo sapiens, OCI-AML-5; extended viability assay
AML cell lines = assay: Broad profiling in a panel of AML cell lines (extended viability tests); type: cell-based; conditions: SKNO-1, KG-1, HEL-60, MOLM-16, MV-4-11, OciAML-2, MOLM-6 and OciAML-3; read-out: GI50 in sensitive responder cell lines
Protocol: Mean GI50 (day 10) is shown and plotted on the graph (n=3). (D) Levels of phosphorylated STAT5 S726 and […] in AML cells from the panel C were measured by WB. Densitometry for STAT5 S726 and […] signals is shown and plotted on the graph. Cell lines from the panel D were divided into two classes based on the sensitivity to CDK8 inhibitors treatment (responders GI50<1 μM and non-responder GI50>1 μM), mean levels of STAT5 S726 (E) or STAT1 S727 (F) in selected cell lines measured by densitometry were presented on scatter plots. Differences between responder and non-responder were assessed by t-tests (p value is shown).
Cells grown in suspension were plated onto 96-well culture dishes in triplicate at 20000 cells per well in 200 μl of their culture medium, except Kasumi-1 cells, which were plated at 60 000/well. Cells were incubated in the presence of vehicle, 1 μM docetaxel (positive control, Santa Cruz Biotechnology) or 6 serially - diluted concentrations of tested compound. The compound effect was determined by AlamarBlue measurement. On days 3, 6-7 and 10, an equal volume from all wells was also split-back with fresh media supplemented with tested compound, resulting in a cell density for the vehicle well that matched the initial seeding density. […]

CDK2/CycE1 = CDK2/CycE1 (Homo sapiens, UniProt P24941); assay: CDK family single point inhibition assay; type: biochemical; conditions: Km ATP
[1] = 14-days toxicology study, hematology; type: in vivo, CD-1 mice; conditions: for GRA / HCT / HGB / LYMPH / MONO / MPV / PLT / RBC / WBC: 14 days
Protocol: To evaluate toxicity of the SEL120-34A compound, a 14-days toxicology study was run in CD-1 female mice. The day before the first administration of vehicle (BID, PO) or test compound, mice were weighed and randomized into uniform groups (5 mice per group). Prior to use, the test compound was dissolved freshly in water and administered PO at indicated doses in a volume of 10 μl per 1 g of body weight. Body weight and the general condition of the animals were monitored daily. When the study finished on Day 15, mice were subjected to anesthesia, and blood was collected into tubes containing K2EDTA for analysis of hematology parameters (ABC Vet Animal Blood Counter).

CDK9/CycT1 = target: T1, CDK9/CycT1 (Homo sapiens, UniProt P50750); assay: CDK9/CycT1 kinase activity assay (ProQinase); type: biochemical; conditions: for remaining activity at 1 µM: Km ATP
T1 construct: purchased ProQinase
T1 sequence (P50750 whole entry): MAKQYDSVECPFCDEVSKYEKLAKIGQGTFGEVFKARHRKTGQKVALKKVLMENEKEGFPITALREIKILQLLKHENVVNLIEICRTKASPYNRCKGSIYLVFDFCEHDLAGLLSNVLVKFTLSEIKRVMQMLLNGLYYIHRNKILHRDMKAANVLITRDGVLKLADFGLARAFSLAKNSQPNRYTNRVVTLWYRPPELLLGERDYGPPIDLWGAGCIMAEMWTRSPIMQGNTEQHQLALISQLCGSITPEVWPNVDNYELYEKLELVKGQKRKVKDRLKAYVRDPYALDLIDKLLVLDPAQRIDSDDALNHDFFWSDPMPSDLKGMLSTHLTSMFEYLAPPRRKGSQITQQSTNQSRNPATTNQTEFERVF
T1 sequence (O60563 whole entry partner): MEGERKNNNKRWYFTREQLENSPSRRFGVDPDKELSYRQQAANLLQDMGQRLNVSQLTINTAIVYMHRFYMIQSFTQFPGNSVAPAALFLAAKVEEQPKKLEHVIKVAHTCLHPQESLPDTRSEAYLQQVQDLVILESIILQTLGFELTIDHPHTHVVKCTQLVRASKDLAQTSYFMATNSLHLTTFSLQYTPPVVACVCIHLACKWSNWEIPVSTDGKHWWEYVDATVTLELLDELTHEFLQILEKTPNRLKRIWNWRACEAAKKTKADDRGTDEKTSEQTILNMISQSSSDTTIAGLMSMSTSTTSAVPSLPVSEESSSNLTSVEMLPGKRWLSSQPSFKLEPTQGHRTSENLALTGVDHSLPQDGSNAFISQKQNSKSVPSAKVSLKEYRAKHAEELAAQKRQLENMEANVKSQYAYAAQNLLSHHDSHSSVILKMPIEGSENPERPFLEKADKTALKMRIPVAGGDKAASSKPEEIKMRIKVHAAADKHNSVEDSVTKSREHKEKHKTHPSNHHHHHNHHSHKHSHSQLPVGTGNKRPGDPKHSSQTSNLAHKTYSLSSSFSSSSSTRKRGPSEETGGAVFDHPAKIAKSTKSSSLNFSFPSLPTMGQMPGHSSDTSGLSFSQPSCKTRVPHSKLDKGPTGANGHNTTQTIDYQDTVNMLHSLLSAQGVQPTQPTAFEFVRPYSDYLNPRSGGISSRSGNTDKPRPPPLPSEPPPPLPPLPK
Excerpt: www.impactjournals.com/oncotarget/ Oncotarget, Supplementary Materials 2017
Supplementary Figure 2: Activity of CDK9/CycT1 in the presence of SEL120-34A. […]

Question: With `Cc1c(Br)c(Br)c2c3c1nc(N1CCNCC1)n3CCC2` [SEL120-34A] as the compound, how does the GI50 (Oci-AML5) read?
Answer: Its GI50 is 30 nM.

Question: And the GI50 (AML cell lines)?
Answer: Its GI50 is under 1000 nM.

Question: And the remaining activity at 1 µM (CDK2/CycE1; mean, read-out: % remaining activity @1μM CDK2/CycE1 Mean)?
Answer: Its remaining activity at 1 µM is 63%.

Question: What about the remaining activity at 1 µM (CDK2/CycE1; repeat 1, read-out: % remaining activity @1μM CDK2/CycE1 repeat 1) of the same compound?
Answer: Its remaining activity at 1 µM is 64%.

Question: And the remaining activity at 1 µM (CDK2/CycE1; repeat 2, read-out: % remaining activity @1μM CDK2/CycE1 repeat 2)?
Answer: Its remaining activity at 1 µM is 63%.

Question: What about the GRA ([1]; 30 mg/kg BID PO) of the same compound?
Answer: Its GRA is 34%.

Question: What about the HCT ([1]; 30 mg/kg BID PO) of the same compound?
Answer: Its HCT is 47.7%.

Question: What about the HGB ([1]; 30 mg/kg BID PO) of the same compound?
Answer: Its HGB is 14.7 g/dL.

Question: What about the LYMPH ([1]; 30 mg/kg BID PO) of the same compound?
Answer: The LYMPH was 60.2%.

Question: What about the MONO ([1]; 30 mg/kg BID PO) of the same compound?
Answer: Its MONO is 5.7%.

Question: And the MPV ([1]; 30 mg/kg BID PO)?
Answer: The MPV was 6.6 μm3.

Question: What about the PLT ([1]; 30 mg/kg BID PO) of the same compound?
Answer: The PLT was 1305.4 103/mm3.

Question: And the RBC ([1]; 30 mg/kg BID PO)?
Answer: Its RBC is 9.5 106/mm3.

Question: What about the WBC ([1]; 30 mg/kg BID PO) of the same compound?
Answer: Its WBC is 12.8 103/mm3.

Question: And the GRA ([1]; 30 mg/kg QD PO)?
Answer: Its GRA is 25.9%.

Question: And the HCT ([1]; 30 mg/kg QD PO)?
Answer: The HCT was 46.2%.

Question: What about the HGB ([1]; 30 mg/kg QD PO) of the same compound?
Answer: Its HGB is 14.7 g/dL.

Question: What about the LYMPH ([1]; 30 mg/kg QD PO) of the same compound?
Answer: The LYMPH was 68.6%.

Question: What about the MONO ([1]; 30 mg/kg QD PO) of the same compound?
Answer: Its MONO is 5.5%.

Question: And the MPV ([1]; 30 mg/kg QD PO)?
Answer: Its MPV is 6.1 μm3.

Question: And the PLT ([1]; 30 mg/kg QD PO)?
Answer: Its PLT is 1169.4 103/mm3.

Question: What about the RBC ([1]; 30 mg/kg QD PO) of the same compound?
Answer: Its RBC is 9 106/mm3.

Question: What about the WBC ([1]; 30 mg/kg QD PO) of the same compound?
Answer: The WBC was 10.1 103/mm3.

Question: What about the GRA ([1]; 60 mg/kg QD PO) of the same compound?
Answer: The GRA was 29.2%.

Question: What about the HCT ([1]; 60 mg/kg QD PO) of the same compound?
Answer: Its HCT is 46.4%.

Question: What about the HGB ([1]; 60 mg/kg QD PO) of the same compound?
Answer: Its HGB is 14.1 g/dL.

Question: What about the LYMPH ([1]; 60 mg/kg QD PO) of the same compound?
Answer: Its LYMPH is 65.1%.

Question: And the MONO ([1]; 60 mg/kg QD PO)?
Answer: Its MONO is 5.7%.

Question: And the MPV ([1]; 60 mg/kg QD PO)?
Answer: Its MPV is 6.6 μm3.

Question: What about the PLT ([1]; 60 mg/kg QD PO) of the same compound?
Answer: The PLT was 1050.6 103/mm3.

Question: And the RBC ([1]; 60 mg/kg QD PO)?
Answer: Its RBC is 8.9 106/mm3.

Question: And the WBC ([1]; 60 mg/kg QD PO)?
Answer: Its WBC is 10.4 103/mm3.

Question: And the “alterations in the peripheral blood” value ([1]; subchronic 14 days treatment, healthy immunocompetent CD-1 mice)?
Answer: The value was “not associated with significant alterations”.

Question: What about the remaining activity at 1 µM (CDK9/CycT1; mean, read-out: % remaining activity @1μM CDK9/CycT1 Mean) of the same compound?
Answer: Its remaining activity at 1 µM is 15%.

Question: And the remaining activity at 1 µM (CDK9/CycT1; repeat 1, read-out: % remaining activity @1μM CDK9/CycT1 repeat 1)?
Answer: The remaining activity at 1 µM was 14%.

Question: And the remaining activity at 1 µM (CDK9/CycT1; repeat 2, read-out: % remaining activity @1μM CDK9/CycT1 repeat 2)?
Answer: Its remaining activity at 1 µM is 16%.

Question: What about the pIC50 (CDK9/CycT1; CDK9/CycT1, Km ATP concentration) of the same compound?
Answer: The pIC50 was 5.97.

Question: What about the “selectivity against CDK9” value (CDK9/CycT1; versus CDK8) of the same compound?
Answer: The value was “over 200 fold”.
